Key:
Format in all cases: cell-based, human
[1] = test system: myeloid suppressive cells; experiment: Induction of immunosuppressive factor mRNA by PGE2 and EP agonists (FIG. 3)
From the text: FIG. 3. PGE2, EP4 and EP2 agonists mediate enhanced development of MDSCs. […] All data were confirmed in 3-7 independent experiments. Bar graphs present data of a single representative experiment with different donors as mean±s.d.

[2] = test system: PGE2-induced myeloid suppressive cells; experiment: Dose-dependent induction of immunosuppressive factors with or without IL-4 (FIG. 4); conditions: presence or absence of IL-4
From the text: FIG. 4 Minimal requirement for high doses of PGE2 in the functional induction of myeloid suppressive cells, regardless of the presence or absence of IL-4. (A) Dose-dependent expression of immunosuppressive factors IL10, IDO1, IL4Rα and COX2 in PGE2-induced suppressive cells, generated in the presence or absence of IL-4. Histograms present data of a single representative experiment with different donors as mean±s.d.

suppressive cells = experiment: Yield of ex vivo generated cells (FIG. 5); conditions: N=12 donors, mean
From the text: Yield of PGE2-induced myeloid suppressive cells was similar as the yield of iDCs and TNF-a matured DCs (FIG. 5). FIG. 5. PGE2 allows for ex vivo generation of high numbers of suppressive cells. […] Histograms present data of individual experiments (N=12) with different donors as mean±s.d.

[3] = test system: differentiating monocytes; experiment: Six-day GM-CSF and IL-4-supplemented cultures of differentiating monocytes: phenotype, suppressive factors, CD8+ T cell suppression (FIG. 2)
From the text: PGE2 acts on four subtypes of G protein-coupled receptors designated EP1, EP2, EP3, and EP4, among which EP2 and EP4 signaling is coupled to rise in cAMP concentration.
FIG. 2. PGE2 redirects DC differentiation and induces CD14^+CD33^+CD34^+ cells with the phenotype and function similar to monocytic MDSCs. (A) Phenotype of PGE2-induced CD1a^−CD14^+CD80^−CD83^− suppressive cells expressing inhibitory molecules ILT2, ILT3, ILT4, PDL-1, but not PDL-2. PGE2-induced suppressive cells express E-prostanoid receptors (labeled with α-EP1-, α-EP3- sec.Alexa488 and α-EP2-, α-EP4-PE). […] (bottom) Expression of immunosuppressive factors IL10, IDO1, IL4Rα and COX2 in PGE2-induced suppressive cells. (C) Immunosuppressive effects of PGE2-induced suppressive cells on allogeneic naïve CFSE-labeled CD8^+ T cells primed by CD3/CD28 and stained for granzyme B. Left panel: Percentages indicate the fraction of proliferating granzyme B^+ (marker of CTL status) CD8^+ cells. Right panel: Percentage of proliferating CD8^+ T cells in the presence of PGE2-induced suppressive cells (PGE2-d0) and PGE2-conditioned DCs (PGE2-d6). All data (panels A-C) were confirmed in at least 3 independent experiments. Bar graphs present data of a single representative experiment with different donors as mean±s.d. P<0.05 marked *; P<0.01 marked **; P<0.001 marked ***.

[4] = test system: monocytes isolated from healthy blood donors; experiment: Induction of COX2 and suppressive factors in short-term cultured monocytes (FIG. 1)
Experimental: FIG. 1. The induction of endogenous COX2 and MDSC-associated suppressive factors in monocytes by PGE2. (A) Expression of COX2 mRNA (A, left) and protein (A, right) levels in monocytes isolated from healthy blood donors is induced by synthetic PGE2. Regulation of COX1 and COX2 expression by synthetic PGE2 was analyzed after 6-10 h. […] All data (panels A-B) were confirmed in at least 3 independent experiments. Bar graphs present data of a single representative experiment with different donors as mean±s.d. P<0.05 marked *; P<0.01 marked **; P<0.001 marked ***.

CCCC1([C@H](O)C/C=C/[C@H]2[C@H](O)CC(=O)[C@@H]2CCCCCCC(=O)OC)CCC1 [Butaprost]
induction of immunosuppressive factors arginase, IDO1, NOS2, IL-4Rα, IL10 and COX2 mRNA [1]: induced high levels

O=C1CC[C@H](/C=C/[C@@H](O)Cc2ccccc2)N1CCCCCCc1nn[nH]n1 [CAY10598]
induction of immunosuppressive factors arginase, IDO1, NOS2, IL-4Rα, IL10 and COX2 mRNA [1]: induced high levels

CCCCC[C@H](O)/C=C/[C@H]1[C@H](O)CC(=O)[C@@H]1C/C=C\CCCC(=O)O [PGE2, (5Z,11 alpha,13E,15S)-11,15-dihydroxy-9-oxoprosta-5,13-dien-1-oic acid]
induction of IL4Rα [2]: less pronounced, but also significant
production of IL-10, ARG-1, NOS2 and IDO1 [2]: dose-dependently induced
yield of cells (suppressive cells): 48.6%
induction of immunosuppressive factors arginase, IDO1, NOS2, IL-4Rα, IL10 and COX2 mRNA [1]: Induction of immunosuppressive factors
induction of CD1a+CD14- DCs ([3]; added to GM-CSF and IL-4-supplemented cultures of differentiating monocytes): abolished the induction of CD1a^+CD14^− DCs
CTL-suppressive function ([3]; added to GM-CSF/IL-4-supplemented monocyte cultures): sufficient to induce the CTL-suppressive function
IL-10 production ([3]; after 6 days of culture): 261 pg/mL
expression of additional immunosuppressive factors IDO1, NOS2, IL-10, IL4Rα [4]: induced the expression
expression of endogenous COX2 ([4]; analyzed after 6-10 h): start expressing endogenous COX2

TNF-α
yield of cells (suppressive cells): 36.9%

From US20140255358A1, “GENERATION OF IMMUNOSUPPRESSIVE MYELOID CELLS USING PGE2” (priority 2011, published 2014)
